Legend:
Format in all cases: ADME
[1] = target: T1, Albumin (Homo sapiens, UniProt P02768); test: Binding affinity to human serum albumin at 0.4 to 5.6 x 10' -5 M by UV-Vis spectroscopy; conditions: isolated protein
[2] = target: T1, Albumin; test: Ratio of binding constant for human serum albumin in presence of Mg2+ to binding constant for human serum albumin in absence of metal ions
[3] = target: T1, Albumin; test: Ratio of binding constant for human serum albumin in presence of Ba2+ to binding constant for human serum albumin in absence of metal ions
[4] = target: T1, Albumin; test: Ratio of binding constant for human serum albumin in presence of Zn2+ to binding constant for human serum albumin in absence of metal ions
[5] = target: T1, Albumin; test: Ratio of binding constant for human serum albumin in presence of Mn2+ to binding constant for human serum albumin in absence of metal ions
[6] = target: T1, Albumin; test: Ratio of binding constant for human serum albumin in presence of Cu2+ to binding constant for human serum albumin in absence of metal ions
[7] = target: T1, Albumin; test: Ratio of binding constant for human serum albumin in presence of Co2+ to binding constant for human serum albumin in absence of metal ions
[8] = target: T1, Albumin; test: Ratio of binding constant for human serum albumin in presence of Ni2+ to binding constant for human serum albumin in absence of metal ions
[9] = target: T1, Albumin; test: Ratio of binding constant for human serum albumin in presence of Fe3+ to binding constant for human serum albumin in absence of metal ions
[10] = target: T1, Albumin; test: Ratio of binding constant for human serum albumin in presence of Cr3+ to binding constant for human serum albumin in absence of metal ions
[11] = target: T1, Albumin; test: Ratio of binding constant for human serum albumin in presence of La3+ to binding constant for human serum albumin in absence of metal ions

T1 sequence (P02768 whole entry): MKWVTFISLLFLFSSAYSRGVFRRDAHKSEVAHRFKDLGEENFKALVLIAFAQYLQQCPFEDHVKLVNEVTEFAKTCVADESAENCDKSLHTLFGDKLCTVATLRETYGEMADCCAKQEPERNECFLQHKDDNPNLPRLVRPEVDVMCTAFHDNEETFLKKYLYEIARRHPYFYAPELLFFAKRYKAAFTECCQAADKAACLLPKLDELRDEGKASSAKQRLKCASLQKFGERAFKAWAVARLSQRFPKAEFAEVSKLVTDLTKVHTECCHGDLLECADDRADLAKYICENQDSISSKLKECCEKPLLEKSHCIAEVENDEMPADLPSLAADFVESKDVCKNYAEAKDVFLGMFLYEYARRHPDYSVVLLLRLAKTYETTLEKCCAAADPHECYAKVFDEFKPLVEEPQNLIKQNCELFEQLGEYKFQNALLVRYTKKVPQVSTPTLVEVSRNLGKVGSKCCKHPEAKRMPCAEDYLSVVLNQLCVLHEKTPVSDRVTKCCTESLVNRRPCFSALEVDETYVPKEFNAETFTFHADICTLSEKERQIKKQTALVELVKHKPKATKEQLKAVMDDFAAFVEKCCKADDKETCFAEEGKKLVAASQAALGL

Structure (SMILES) | Activity [1] | Ratio [2] | Ratio [3] | Ratio [4] | Ratio [5] | Ratio [6] | Ratio [7] | Ratio [8] | Ratio [9] | Ratio [10] | Ratio [11]
OC(Cn1cncn1)(Cn1cncn1)c1ccc(F)cc1F [FLUCONAZOLE] | Active | 1.081 | 0.956 | 1.11 | 0.868 | 0.961 | 0.945 | 0.857 | 0.741 | 0.866 | 0.905
OC(Cn1cncn1)(Cn1cncn1)c1ccc(Cl)cc1Cl | Active | – | – | – | – | – | – | – | – | – | –

Reference: ChEMBL document CHEMBL3351322, “Study the interactions between human serum albumin and two antifungal drugs: fluconazole and its analogue DTP” (Bioorg Med Chem Lett, 2014)
